Source: the supplement of paper PMC10307832

What was measured:
Assay in all cases: relative viability (nuclei count vs DMSO), 5 days (fraction); higher = more cells survive
VX-11e + OSI-027 = compound: CC1=CN=C(N=C1C2=CNC(=C2)C(=O)N[C@H](CO)C3=CC(=CC=C3)Cl)NC4=C(C=C(C=C4)F)Cl [VX-11e] + COc1cccc2cc(-c3nc([C@H]4CC[C@H](C(=O)O)CC4)n4ncnc(N)c34)[nH]c12 [OSI-027] (partner 0.5 µM)
In short: (§1)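 Five library-drug doses in √10 steps were combined with a fixed anchor-drug dose, or a single drug was given alone, by pin tool to lung cancer cell lines in 1536-well plates the day after seeding. Nuclei were stained and counted after 5 days. Relative viability is the nuclei count in treated wells over that in vehicle wells, taken as the median of duplicate plates.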

VX-11e + Foretinib = compound: CC1=CN=C(N=C1C2=CNC(=C2)C(=O)N[C@H](CO)C3=CC(=CC=C3)Cl)NC4=C(C=C(C=C4)F)Cl [VX-11e] + COc1cc2c(Oc3ccc(NC(=O)C4(C(=O)Nc5ccc(F)cc5)CC4)cc3F)ccnc2cc1OCCCN1CCOCC1 [Foretinib] (partner 0.25 µM)
In short: as §1

VX-11e + Palbociclib = compound: CC1=CN=C(N=C1C2=CNC(=C2)C(=O)N[C@H](CO)C3=CC(=CC=C3)Cl)NC4=C(C=C(C=C4)F)Cl [VX-11e] + CC(=O)c1c(C)c2cnc(Nc3ccc(N4CCNCC4)cn3)nc2n(C2CCCC2)c1=O [Palbociclib] (partner 0.5 µM)
In short: as §1

VX-11e = compound: CC1=CN=C(N=C1C2=CNC(=C2)C(=O)N[C@H](CO)C3=CC(=CC=C3)Cl)NC4=C(C=C(C=C4)F)Cl [VX-11e]
In short: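 For viability, nuclei in each treated well were divided by nuclei in vehicle wells and the median across plates was taken. Lung cancer cell lines in 1536-well plates were pinned with five library-drug doses (not always all listed) spaced by √10, cultured 5 days without medium change, and imaged at 4× after Hoechst staining, with plates passing only at control CV below 25% and at least one doubling.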

| Cell Line | relative viability (VX-11e + OSI-027; first compound 0.1265 µM) | relative viability (VX-11e + OSI-027; first compound 0.4 µM) | relative viability (VX-11e + OSI-027; first compound 1.265 µM) | relative viability (VX-11e + OSI-027; first compound 4 µM) | relative viability (VX-11e + Foretinib; first compound 0.1265 µM) | relative viability (VX-11e + Foretinib; first compound 0.4 µM) | relative viability (VX-11e + Foretinib; first compound 1.265 µM) | relative viability (VX-11e + Foretinib; first compound 4 µM) | relative viability (VX-11e + Palbociclib; first compound 0.04 µM) | relative viability (VX-11e + Palbociclib; first compound 0.1265 µM) | relative viability (VX-11e + Palbociclib; first compound 0.4 µM) | relative viability (VX-11e + Palbociclib; first compound 1.265 µM) | relative viability (VX-11e + Palbociclib; first compound 4 µM) | relative viability (VX-11e; 0.04 µM) | relative viability (VX-11e; 0.1265 µM) | relative viability (VX-11e; 0.4 µM) | relative viability (VX-11e; 1.265 µM) | relative viability (VX-11e; 4 µM) | relative viability (VX-11e + OSI-027; first compound 0.04 µM) | relative viability (VX-11e + Foretinib; first compound 0.04 µM) |
| --- | --- | --- | --- | --- | --- | --- | --- | --- | --- | --- | --- | --- | --- | --- | --- | --- | --- | --- | --- | --- |
| HCC-78 | 0.364 | 0.395 | 0.376 | 0.393 | 0.54 | 0.542 | 0.514 | 0.496 | 0.481 | 0.359 | 0.466 | 0.501 | 0.431 | 0.934 | 1.02 | 1.01 | 0.68 | 0.667 |  |  |
| HCC-366 | 0.795 |  | 0.544 | 0.136 | 0.876 |  | 0.851 | 0.701 | 0.385 | 0.311 |  | 0.314 | 0.163 | 0.997 | 0.936 |  | 1.03 | 0.676 | 0.811 | 1.01 |
| HCC-827 | 0.797 | 0.74 | 0.977 | 0.44 | 1.09 | 1.04 | 1.13 | 0.739 | 0.533 | 0.46 | 0.461 | 0.541 | 0.301 | 1.09 | 0.988 | 1.07 | 1.14 | 0.958 | 0.762 | 1.07 |
| HOP-62 | 0.715 | 0.569 | 0.464 | 0.372 | 1.03 | 1.16 | 0.859 | 0.589 | 0.505 | 0.451 | 0.464 | 0.434 | 0.348 | 1.04 | 0.986 | 0.921 | 0.595 | 0.567 | 0.633 | 1.22 |
| LC-2-ad | 0.534 | 0.363 | 0.584 | 0.466 | 0.822 | 0.983 | 0.747 | 0.673 | 0.48 | 0.42 | 0.54 | 0.46 | 0.409 | 1.01 | 0.823 | 0.662 | 0.603 | 0.66 | 0.73 | 0.883 |
| LCLC-97TM1 | 0.274 | 0.287 | 0.418 | 0.175 | 0.811 | 0.826 | 0.455 | 0.332 | 0.202 | 0.176 | 0.194 |  | 0.114 | 0.911 | 0.889 | 0.797 | 0.499 | 0.541 | 0.494 | 0.955 |
| LCLC-103H | 0.458 | 0.43 | 0.402 | 0.344 | 0.694 | 0.858 | 0.656 | 0.67 | 0.469 | 0.435 | 0.502 | 0.456 | 0.448 | 0.939 | 0.924 | 0.981 | 0.783 | 0.805 | 0.461 | 0.867 |
| LK-2 | 0.187 | 0.146 | 0.153 | 0.17 | 1.3 | 1.18 | 0.643 | 0.817 | 0.557 | 0.594 | 0.566 | 0.399 | 0.45 | 0.908 | 0.983 | 0.821 | 0.588 | 0.705 | 0.163 | 1.1 |
| LOU-NH91 | 0.67 | 0.497 | 0.611 | 0.541 | 0.896 | 0.577 | 0.94 | 0.782 | 0.533 | 0.509 |  | 0.487 | 0.521 | 0.855 | 0.924 |  | 0.733 | 0.797 | 0.622 | 0.92 |
| LU99A | 0.324 | 0.249 | 0.286 | 0.256 | 0.729 | 0.894 | 0.805 | 0.362 | 0.334 | 0.373 | 0.443 | 0.326 | 0.228 | 1.03 | 0.933 | 0.802 | 0.77 | 0.394 | 0.257 | 0.806 |
| LXF-289 | 0.58 | 0.174 | 0.517 | 0.358 | 0.877 | 0.88 | 0.85 | 0.637 | 0.633 | 0.61 |  | 0.618 | 0.473 | 1.06 | 0.977 | 0.773 | 0.93 | 0.672 | 0.686 | 1 |
| NCI-H23 | 0.411 |  | 0.271 | 0.173 | 0.984 |  | 0.767 | 0.472 | 0.453 | 0.416 | 0.425 | 0.382 | 0.203 | 0.82 | 0.854 | 0.198 | 0.411 | 0.271 | 0.368 | 0.896 |
| NCI-H596 | 0.691 | 0.525 | 0.349 | 0.407 | 0.952 | 0.775 | 0.79 | 0.506 |  |  |  |  |  | 0.916 | 0.901 | 0.943 | 0.525 | 0.578 | 0.518 | 0.854 |
| NCI-H1299 |  |  |  |  | 1.08 | 1.11 | 1.23 | 0.52 |  |  |  |  |  | 1.01 | 0.981 | 1.03 | 1.03 | 0.49 |  | 1.2 |
| NCI-H1563 | 0.697 | 0.705 | 0.822 | 0.789 | 0.832 | 0.862 | 0.922 | 0.763 |  |  |  |  |  | 0.983 | 0.916 | 0.908 | 0.944 | 0.82 | 0.729 | 1.02 |
| NCI-H1648 | 0.238 | 0.29 | 0.245 | 0.241 |  |  |  |  |  | 0.305 | 0.301 | 0.331 | 0.314 | 0.978 | 0.958 | 1.54 | 0.694 | 0.624 | 0.273 |  |
| NCI-H1703 |  |  |  |  | 0.33 |  | 0.317 | 0.28 |  |  |  |  |  | 0.828 | 1.11 | 0.632 | 0.961 | 0.74 |  | 0.383 |
| NCI-H1792 | 0.581 | 0.524 | 0.634 | 0.208 |  |  |  |  | 0.684 | 0.586 | 0.645 | 0.541 | 0.319 | 0.604 | 0.852 | 0.236 | 0.534 | 0.174 | 0.733 |  |
